Patent US20260226049A1, “NITROGEN-CONTAINING HETEROCYCLIC COMPOUND, PREPARATION METHOD THEREFOR, AND USE THEREOF” (BIVISION PHARMACEUTICALS, INC, priority 2023, published 2026)
One block for each compound: values may come before it.

Experiments:
[1] = target: T1, FAP protein (Homo sapiens, UniProt Q12884); assay: Biacore test of ligand binding to FAP protein; conditions: FAP protein on SA chip, 15° C., 1:1 binding model
T1 construct: purchased Sinobiological
T1 sequence (Q12884 1-760): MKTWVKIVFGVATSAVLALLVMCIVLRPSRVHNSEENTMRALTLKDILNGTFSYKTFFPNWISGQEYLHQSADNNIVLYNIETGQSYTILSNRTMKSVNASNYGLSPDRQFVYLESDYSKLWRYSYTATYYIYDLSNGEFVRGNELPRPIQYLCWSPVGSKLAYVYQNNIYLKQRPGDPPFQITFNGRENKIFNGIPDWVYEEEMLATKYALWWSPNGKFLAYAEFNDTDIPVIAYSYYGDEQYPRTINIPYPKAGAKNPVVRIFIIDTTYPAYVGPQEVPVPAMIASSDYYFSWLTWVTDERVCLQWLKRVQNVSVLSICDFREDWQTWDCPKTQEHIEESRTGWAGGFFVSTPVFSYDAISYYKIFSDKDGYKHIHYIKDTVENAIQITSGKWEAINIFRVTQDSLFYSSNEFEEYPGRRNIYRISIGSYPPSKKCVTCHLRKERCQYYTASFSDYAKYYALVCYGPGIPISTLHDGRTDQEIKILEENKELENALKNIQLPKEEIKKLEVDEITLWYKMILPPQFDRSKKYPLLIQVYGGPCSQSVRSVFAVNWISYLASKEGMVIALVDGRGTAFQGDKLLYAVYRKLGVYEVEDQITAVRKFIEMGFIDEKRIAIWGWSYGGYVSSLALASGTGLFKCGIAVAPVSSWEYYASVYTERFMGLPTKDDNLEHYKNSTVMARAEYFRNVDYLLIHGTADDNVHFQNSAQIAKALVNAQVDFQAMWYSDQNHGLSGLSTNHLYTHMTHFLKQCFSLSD
Description: The Biacore 8K (Cytiva) instrument was used to detect ligand binding of the FAP protein (Sinobiological). The FAP protein was captured on the SA chip. Before ligand immobilization (flow paths 1 and 2, flow rate of 10 μL/min), the FAP protein (10 μg/mL, flow rate of 5 μL/min, injection time of 600 s) was immobilized on flow path 2 using running buffer, and the sensor surface was conditioned with three consecutive injections of 1 M NaCl in 50 mM NaOH. After each ligand injection, additional washing was carried out with isopropanol in 1 M NaCl and 50 mM NaOH (flow paths 1 and 2, flow rate of 10 μL/min, injection time of 60 s).
The test compounds were dissolved in 100% dimethyl sulfoxide and diluted to 10 mM, then further diluted in the assay buffer (PBS, pH 7.4, 1 mM TCEP ([…]), 0.05% P20, 2% dimethyl sulfoxide) to appropriate maximum concentrations. The analyte was run under the following conditions: analysis temperature=15° C., analysis step=all set to LMW kinetics; cycle type=single cycle (90 s contact time, 1800 s dissociation time, 30 μL/min flow rate, flow channels 1, 2); flow channel detection=2-1). Data evaluation was performed using Biacore Insight Evaluation Software, and the data were fitted to a 1:1 binding model.
The Biacore results are shown in Table 1: pKD=−Log KD, where KD is the binding affinity of the compound to the FAP protein as measured by Biacore. The binding affinity is expressed by KD (M)=Kd(1/s)/Ka(1/Ms). Where A: pKD>8, B: 7<pKD<8, C: 6<pKD<7, D: pKD<6.

[2] = system: HT1080 cell line with high FAP expression; assay: Therapeutic experiment of ^177Lu-labeled compounds in tumor-bearing mice; type: in vivo, Balb/c Nude mice; conditions: for therapeutic effects in mouse tumor model: ^177Lu-labeled compound; for T/C / Tumor volume (mm^3) Group administration Day 14 / TGI^TV (%): 0.8 mCi; for T/C / Tumor volume (mm^3) Group administration Day 14: Day 14; for TGI^TV (%): Day 14, relative tumor inhibition rate; for Tumor volume (mm^3) Before administration: baseline, 0.8 mCi group
Description: Balb/c Nude tumor-bearing mice (supplier: Shanghai Alamo Pharmaceutical Technology Co., Ltd., HT1080 cell line with high FAP expression) aged approximately 6-8 weeks were randomly assigned to 13 experimental groups based on tumor volume, with 5 mice per group. Animal body weight and tumor size were measured, and administration was initiated on the grouping day starting with Group 1 (control group: normal saline). General health and appearance were observed daily after the start of the experiment. Animal body weight and tumor size were measured before each sample collection time point. Any abnormal observations detected during the entire study period were required to be recorded in the raw data.
The synthesized compounds were labeled with ^177Lu and subsequently utilized in the therapeutic assay on mouse tumor models. […] Furthermore, no significant changes in mouse body weight (FIG. 8) were observed throughout the experimental period.
• TGI^TV: Relative tumor inhibition rate (TGI^TV): TGI^TV (%)=[1−(Ti−T0)/(Vi−V0)]×100%; • (Ti: average tumor volume of the treatment group on day i of administration, TO: average tumor volume of the treatment group on day 0 of administration; Vi: average tumor volume of the solvent control group on day i of administration, V0: average tumor volume of the solvent control group on day 0 of administration) • T/C: T/C % is one of the most commonly used indicators for tumor response to treatment: T/C %=T/C*100%; • (T represents the average tumor volume of the treatment group at a specific time point; C represents the average tumor volume of the control group at a specific time point.)
The differences between the treatment groups (tumor volumes of the second, third, fourth, and fifth groups) and the control group (tumor volume of the first group) and between the tumor volumes of the first, third, fourth, and fifth groups and the tumor volume of the second group were analyzed using the two-way ANOVA Fisher's LSD test method. P-values less than 0.05 were considered statistically significant. Both statistical significance and biological significance were taken into account during the result analysis.

- Kd [1]: < 10 nM
SMILES: N#C[C@@H]1CC(F)(F)CN1C(=O)CNC(=O)c1ccc2c(c1)CCN(C(=O)CCC(=O)NCCNC(=O)CCNC(=O)CN1CCN(CC(=O)O)CCN(CC(=O)O)CCN(CC(=O)O)CC1)C2 [JHH12]

- Kd [1]: 10 to 100 nM
SMILES: O=C(O)CN1CCN(CC(=O)O)CCN(CC(=O)NCc2ccc(C(=O)N[C@H](CO)C(=O)N3CCC[C@H]3B(O)O)cc2)CCN(CC(=O)O)CC1 [JHB1]

- Kd [1]: 10 to 100 nM
SMILES: N#C[C@@H]1CC(F)(F)CN1C(=O)CNC(=O)c1cnc2c(c1)CCN(C(=O)CCC(=O)NCCNC(=O)CCC(C(=O)O)N1CCN(CC(=O)O)CCN(CC(=O)O)CCN(CC(=O)O)CC1)C2 (stereo partly drawn) [JHH1, 2,2′,2″-(10-(1-carboxy-4-((2-(4-(3-((2-((S)-2-cyano-4,4-difluoropyrrolidin-1-yl)-2-oxoethyl)carbamoyl)-5,8-dihydro-1,7-naphthyridin-7 (6H)-yl)-4-oxobutanamido)ethyl)amino)-4-oxobutyl)-1,4,7,10-tetraazacyclododecane-1,4,7-triyl)triacetic acid]
- therapeutic effects in mouse tumor model [2]: dose-dependent therapeutic effects

- Kd [1]: 10 to 100 nM
SMILES: N#C[C@@H]1CC(F)(F)CN1C(=O)CNC(=O)c1cccc(C2CCN(C(=O)CCC(=O)NCC(=O)N3CN(C(=O)CNC(=O)CCC(=O)N4CCC(c5cccc(C(=O)NCC(=O)N6CC(F)(F)C[C@H]6C#N)c5)CC4)CN(C(=O)CNC(=O)CN4CCN(CC(=O)O)CCN(CC(=O)O)CCN(CC(=O)O)CC4)C3)CC2)c1 [JHDB7]

- Kd [1]: < 10 nM
SMILES: N#C[C@@H]1CC(F)(F)CN1C(=O)CNC(=O)c1ccc2c(c1)CCN(C(=O)CCC(=O)NCC(=O)N1CN(C(=O)CNC(=O)CCC(=O)N3CCc4cc(C(=O)NCC(=O)N5CC(F)(F)C[C@H]5C#N)ccc4C3)CN(C(=O)CNC(=O)CN3CCN(CC(=O)O)CCN(CC(=O)O)CCN(CC(=O)O)CC3)C1)C2 [JHDB6]

- Kd [1]: 100 to 1000 nM
SMILES: N#C[C@@H]1CC(F)(F)CC1C(=O)CNC(=O)c1ccc2c(c1)CCN(C(=O)CCC(=O)NCCNC(=O)CCC(C(=O)O)N1CCN(CC(=O)O)CCN(CC(=O)O)CCN(CC(=O)O)CC1)C2 (some centres unmarked) [JHH6]

More lines, now with the values behind:

SMILES: N#C[C@@H]1CC(F)(F)CN1C(=O)CNC(=O)c1cc2c(s1)CCN(C(=O)CCC(=O)NCCNC(=O)CCC(C(=O)O)N1CCN(CC(=O)O)CCN(CC(=O)O)CCN(CC(=O)O)CC1)C2 (some centres unmarked) [JHH3]
- Kd [1]: < 10 nM

SMILES: C[C@@H]1CC(F)(F)CN1C(=O)CNC(=O)c1ccc2c(c1)CN(C(=O)CCC(=O)NCCNC(=O)CCC(C(=O)O)N1CCN(CC(=O)O)CCN(CC(=O)O)CCN(CC(=O)O)CC1)C2 (some centres unmarked) [JHH7]
- Kd [1]: < 10 nM

SMILES: N#C[C@@H]1CC(F)(F)CN1C(=O)CNC(=O)c1cccc(C2CCN(C(=O)CCC(=O)NCCNC(=O)CCC(C(=O)O)N3CCN(CC(=O)O)CCN(CC(=O)O)CCN(CC(=O)O)CC3)CC2)c1 (some centres unmarked) [JHH9]
- Kd [1]: < 10 nM
- therapeutic effects in mouse tumor model [2]: dose-dependent therapeutic effects

SMILES: N#C[C@@H]1CC(F)(F)CN1C(=O)CNC(=O)c1ccc2c(n1)CCN(C(=O)CCC(=O)NCCNC(=O)CCC(C(=O)O)N1CCN(CC(=O)O)CCN(CC(=O)O)CCN(CC(=O)O)CC1)C2 (some centres unmarked) [JHH2]
- Kd [1]: 10 to 100 nM

SMILES: C[C@@H](NC(=O)c1ccc(CNC(=O)CCC(=O)NCCCC[C@H](NC(=O)CCC(=O)NCc2ccc(C(=O)N[C@H](C)C(=O)N3CCC[C@H]3B(O)O)cc2)C(=O)NCCOCCNC(=O)CN2CCN(CC(=O)O)CCN(CC(=O)O)CCN(CC(=O)O)CC2)cc1)C(=O)N1CCC[C@H]1B(O)O [JHDB2]
- Kd [1]: 100 to 1000 nM

SMILES: N#C[C@@H]1CC(F)(F)CN1C(=O)CNC(=O)c1cc2c(s1)CCN(C(=O)CCC(=O)NCCNC(=O)CCNC(=O)CN1CCN(CC(=O)O)CCN(CC(=O)O)CCN(CC(=O)O)CC1)C2 [JHH11]
- Kd [1]: < 10 nM

SMILES: N#C[C@@H]1CC(F)(F)CN1C(=O)CNC(=O)c1ccc2c(c1)CCCN2C(=O)CCC(=O)NCCNC(=O)CCNC(=O)CN1CCN(CC(=O)O)CCN(CC(=O)O)CCN(CC(=O)O)CC1 [JHH13]
- Kd [1]: 10 to 100 nM

SMILES: C[C@@H](NC(=O)c1cnc2c(c1)CCN(C(=O)CCC(=O)NCCNC(=O)CCC(C(=O)O)N1CCN(CC(=O)O)CCN(CC(=O)O)CCN(CC(=O)O)CC1)C2)C(=O)N1CC(F)(F)C[C@H]1C#N (stereo partly drawn) [JHM1, 2,2′,2″-(10-(1-carboxy-4-((2-(4-(3-(((R)-1-((S)-2-cyano-4,4-difluoropyrrolidin-1-yl)-1-oxopropan-2-yl)carbamoyl)-5,8-dihydro-1,7-naphthyridin-7 (6H)-yl)-4-oxobutanamido)ethyl)amino)-4-oxobutyl)-1,4,7,10-tetraazacyclododecane-1,4,7-triyl)triacetic acid]
- Kd [1]: 100 to 1000 nM

SMILES: N#C[C@@H]1CC(F)(F)CN1C(=O)CNC(=O)c1cccc2c1CCCC2C(=O)CCC(=O)NCCNC(=O)CCNC(=O)CN1CCN(CC(=O)O)CCN(CC(=O)O)CCN(CC(=O)O)CC1.[177Lu] (some centres unmarked) [^177Lu-JHH14]
- T/C [2]: 28.93%
- Tumor volume (mm^3) Group administration Day 14 [2]: 755.85 ± 58.74 mm^3
- TGI^TV (%) [2]: 74.39%
- Tumor volume (mm^3) Before administration [2]: 153.87 ± 16.47 mm^3

SMILES: N#C[C@@H]1CC(F)(F)CN1C(=O)CNC(=O)c1ccnc2c(NC(=O)CCC(=O)NCCNC(=O)CCC(C(=O)O)N3CCN(CC(=O)O)CCN(CC(=O)O)CCN(CC(=O)O)CC3)cccc12.[177Lu] (some centres unmarked) [^177Lu-OncoFAP-DOTAGA, reference compound]
- T/C [2]: 32.33%
- Tumor volume (mm^3) Group administration Day 14 [2]: 844.66 ± 41.70 mm^3
- TGI^TV (%) [2]: 69.90%
- Tumor volume (mm^3) Before administration [2]: 137.00 ± 12.07 mm^3

SMILES: N#C[C@@H]1CC(F)(F)CN1C(=O)CNC(=O)c1cccc2c1CCCN2C(=O)CCC(=O)NCCNC(=O)CCC(C(=O)O)N1CCN(CC(=O)O)CCN(CC(=O)O)CCN(CC(=O)O)CC1.[177Lu] (some centres unmarked) [^177Lu-JHH10]
- T/C [2]: 19.38%
- Tumor volume (mm^3) Group administration Day 14 [2]: 506.26 ± 26.61 mm^3
- TGI^TV (%) [2]: 84.48%
- Tumor volume (mm^3) Before administration [2]: 141.47 ± 12.20 mm^3

SMILES: N#C[C@@H]1CC(F)(F)CN1C(=O)CNC(=O)c1cccc(C2CCN(C(=O)CCC(=O)NCCNC(=O)CCC(C(=O)O)N3CCN(CC(=O)O)CCN(CC(=O)O)CCN(CC(=O)O)CC3)CC2)c1.[177Lu] (some centres unmarked) [^177Lu-JHH9]
- T/C [2]: 30.65%
- Tumor volume (mm^3) Group administration Day 14 [2]: 800.87 ± 42.08 mm^3
- TGI^TV (%) [2]: 72.54%
- Tumor volume (mm^3) Before administration [2]: 155.24 ± 14.81 mm^3
